We go through three compounds from ChEMBL document CHEMBL5230119, “Development of differentiation modulators and targeted agents for treating neuroblastoma” (Eur J Med Chem, 2020).

Assay [1] is described as follows: Synergistic antiproliferative activity against MYCN amplified human Neuroblastoma cell in presence of OTX-015. Format: functional, cell-based.
Assay [2] is described as follows: Synergistic antiproliferative activity against MYCN amplified human Neuroblastoma cell in presence of JQ1.
The next assay concerns IMR-32. Kind of assay: Antiproliferative activity against human IMR-32 cells assessed as cell growth inhibition. Format: functional, cell-based.

In general, IC50 refers to the concentration that inhibits the measured activity by half.

Regarding `Cc1sc2c(c1C)C(c1ccc(Cl)cc1)=N[C@@H](CC(=O)NC(C)(C)C)c1nnc(C)n1-2`, the IC50 in assay [1] is 1480 nM.

As for `Cc1sc2c(c1C)C(c1ccc(Cl)cc1)=N[C@@H](CC(=O)Nc1ccc(O)cc1)c1nnc(C)n1-2` [BIRABRESIB], the IC50 in assay [2] was 839 nM.

Consider `O=C(c1ccc(F)c(F)c1Nc1ccc(I)cc1F)N1CC(O)([C@@H]2CCCCN2)C1` [COBIMETINIB], for which the IC50 with IMR-32 was 70 nM.
